Consider 51 compounds from patent publication US7598244B2, “[1,2,4]triazolo[1,5,a]pyrimidin-2-ylurea derivative and use thereof” (Nippon Kayaku Kabushiki Kaisha, priority 2003, dated 2009).

This test deals with MHC class I molecules of T1 cells (human lymphoma cell line 174×CEM.). The test can be described thus: Effect on expression of MHC class I from T1 cells (flow cytometry, MFI). In kind it is cell-based. The conditions noted are these: 3 days culture. The method, boiled down:
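EC20 is the compound level that lowers MHC class I MFI by 20% relative to compound-free cultures. Read-out was flow cytometry after FITC W6/32 staining.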
In general terms: Flow cytometry measures light scatter and fluorescence of single cells or particles in a stream.

Take `CC(C)CCC[C@H](C)NC(=O)Nc1nc2nccc(-c3cccs3)n2n1` [Example 246]: the “EC20 (concentration necessary for suppressing 20% of the expression level of MHC class I molecules)” value is 50 nM. In the case of `COc1ccc(-c2ccnc3nc(NC(=O)NCCC(=O)OC(C)(C)C)nn23)cc1` [Example 109], the “EC20 (concentration necessary for suppressing 20% of the expression level of MHC class I molecules)” value stood at 110 nM. With `COc1ccc(-c2ccnc3nc(NC(=O)N[C@@H](C)c4ccc(Br)cc4)nn23)cc1` [Example 129], the “EC20 (concentration necessary for suppressing 20% of the expression level of MHC class I molecules)” value is 180 nM. Take `COCCOCCOCCOc1cccc(-c2ccnc3nc(NC(=O)N[C@@H](C)c4cccc(OC)c4)nn23)c1` [Example 239]: the “EC20 (concentration necessary for suppressing 20% of the expression level of MHC class I molecules)” value came out at 110 nM. The figure for `COc1ccc(-c2ccnc3nc(NC(=O)N[C@@H](C)c4ccc(OC)cc4)nn23)cc1` [Example 133] is 190 nM. In the case of `COc1ccc(-c2ccnc3nc(NC(=O)N[C@@H](C)C(=O)NC4CCCCC4)nn23)cc1` [Example 120], the “EC20 (concentration necessary for suppressing 20% of the expression level of MHC class I molecules)” value amounted to 250 nM.

With `COc1cccc([C@H](C)NC(=O)Nc2nc3nccc(-c4cccc(Cl)c4)n3n2)c1` [Example 303], the “EC20 (concentration necessary for suppressing 20% of the expression level of MHC class I molecules)” value came out at 680 nM. Take `CC[C@H](NC(=O)Nc1nc2nccc(-c3ccc(OC)cc3)n2n1)c1ccccc1` [Example 130]: the “EC20 (concentration necessary for suppressing 20% of the expression level of MHC class I molecules)” value stood at 130 nM. Take `COc1ccc(-c2ccnc3nc(NC(=O)N[C@H](C(=O)NCCc4ccccn4)C(C)C)nn23)cc1` [Example 080]: the “EC20 (concentration necessary for suppressing 20% of the expression level of MHC class I molecules)” value was 710 nM.

`COc1ccc(-c2ccnc3nc(NC(=O)NCCc4ccccn4)nn23)cc1` [Example 065]: the “EC20 (concentration necessary for suppressing 20% of the expression level of MHC class I molecules)” value is 350 nM.

Take `COc1ccc(-c2ccnc3nc(NC(=O)NC(C)c4cccc(OCC(C)C)c4)nn23)cc1` (racemic) [Example 230]: the “EC20 (concentration necessary for suppressing 20% of the expression level of MHC class I molecules)” value amounted to 220 nM. `CC(NC(=O)Nc1nc2nccc(-c3cccc(OCc4cccnc4)c3)n2n1)c1ccc2c(c1)OCO2` (stereo not drawn) [Example 306]: the “EC20 (concentration necessary for suppressing 20% of the expression level of MHC class I molecules)” value was determined as 230 nM. As for `COc1cc(C(C)NC(=O)Nc2nc3nccc(-c4ccc5c(c4)OCO5)n3n2)cc(OC)c1OC` (stereo not drawn) [Example 302, 1-[7-(3,4-methylenedioxyphenyl)-[1,2,4]triazolo[1,5-a]pyrimidin-2-yl]-3-[1-(3,4,5-trimethoxyphenyl)ethyl]urea], the “EC20 (concentration necessary for suppressing 20% of the expression level of MHC class I molecules)” value stood at 180 nM. Turning to `COc1cccc(-c2ccnc3nc(NC(=O)NCc4ccccc4)nn23)c1` [Example 019], the “EC20 (concentration necessary for suppressing 20% of the expression level of MHC class I molecules)” value was 1100 nM. The figure for `COc1cccc(C(C)NC(=O)Nc2nc3nccc(-c4cccc(OCC5CCCO5)c4)n3n2)c1` (mixture of isomers) [Example 206] is 220 nM; for `COc1cccc([C@H](C)NC(=O)Nc2nc3nccc(-c4cccc(OCc5ccccc5)c4)n3n2)c1` [Example 199] it is 280 nM; for `COc1cccc([C@H](C)NC(=O)Nc2nc3nccc(-c4cccc(OCc5ccncc5)c4)n3n2)c1` [Example 203] it is 190 nM. For `COc1cccc([C@H](C)NC(=O)Nc2nc3nccc(-c4cccc(OCC(=O)N5CCOCC5)c4)n3n2)c1` [Example 253], the “EC20 (concentration necessary for suppressing 20% of the expression level of MHC class I molecules)” value stood at 270 nM. On to `COc1cccc([C@H](C)NC(=O)Nc2nc3nccc(-c4cccc(OCCN5CCOCC5)c4)n3n2)c1.Cl` [Example 204], for which the “EC20 (concentration necessary for suppressing 20% of the expression level of MHC class I molecules)” value stood at 70 nM. The figure for `COc1ccc(-c2ccnc3nc(NC(=O)N[C@@H](C)C(C)=O)nn23)cc1` [Example 220] is 720 nM; for `COc1ccc(-c2ccnc3nc(NC(=O)NC45CC6CC(CC(C6)C4)C5)nn23)cc1` [Example 035] it is 380 nM; for `CC(C)CCC[C@H](C)NC(=O)Nc1nc2nccc(-c3cccc(OCCN4CCOCC4)c3)n2n1` [Example 259] it is 60 nM. Take `COc1ccc(-c2ccnc3nc(NC(=O)N[C@H](C(=O)O)C(C)C)nn23)cc1` [Example 054]: the “EC20 (concentration necessary for suppressing 20% of the expression level of MHC class I molecules)” value came to 630 nM. For the compound `COc1ccc(-c2ccnc3nc(NC(=O)NC(C)c4cccc(OS(C)(=O)=O)c4)nn23)cc1` (racemic) [Example 195], the “EC20 (concentration necessary for suppressing 20% of the expression level of MHC class I molecules)” value amounted to 60 nM.

“1-(4-methoxy-1-methylbutyl)-3-[7-(4-methoxyphenyl)-[1,2,4]triazolo[1,5-a]pyrimidin-2-yl]urea [Example 333]”: the “EC20 (concentration necessary for suppressing 20% of the expression level of MHC class I molecules)” value stood at 410 nM. For `CCCCNC(=O)Nc1nc2nccc(-c3ccc(OC)cc3)n2n1` [Example 032], the “EC20 (concentration necessary for suppressing 20% of the expression level of MHC class I molecules)” value is 250 nM.

Consider `COc1cccc([C@H](C)NC(=O)Nc2nc3nccc(-c4ccc(O)cc4)n3n2)c1` [Example 223, (S)-1-[7-(4-hydroxyphenyl)-[1,2,4]triazolo[1,5-a]pyrimidin-2-yl]-3-[1-(3-methoxyphenyl)ethyl]urea], for which the “EC20 (concentration necessary for suppressing 20% of the expression level of MHC class I molecules)” value was 14 nM. `CNC(=O)[C@@H](NC(=O)Nc1nc2nccc(-c3ccc(OC)cc3)n2n1)C(C)C` [Example 055]: the “EC20 (concentration necessary for suppressing 20% of the expression level of MHC class I molecules)” value was determined as 690 nM.

Regarding `CC[C@H](NC(=O)Nc1nc2nccc(-c3ccc(OC)cc3)n2n1)C(=O)NC(C)C(=O)OC` (stereo partly drawn) [Example 150], the “EC20 (concentration necessary for suppressing 20% of the expression level of MHC class I molecules)” value is 710 nM.

As to `CNC(=O)Nc1nc2nccc(-c3cccs3)n2n1` [Example 013], the “EC20 (concentration necessary for suppressing 20% of the expression level of MHC class I molecules)” value came out at 480 nM. The figure for `CC(CCC(C)(C)O)NC(=O)Nc1nc2nccc(-c3cccs3)n2n1` (stereo not drawn) [Example 318] is 40 nM; for `COc1ccc(-c2ccnc3nc(NC(=O)NCCCn4ccnc4)nn23)cc1` [Example 066] it is 720 nM.

As to `COc1ccc(-c2ccnc3nc(NC(=O)N[C@@H](C)c4ccc([N+](=O)[O-])cc4)nn23)cc1` [Example 139], the “EC20 (concentration necessary for suppressing 20% of the expression level of MHC class I molecules)” value stood at 130 nM. As for `COc1cccc([C@H](C)NC(=O)Nc2nc3nccc(-c4cccc(OCCc5ccncc5)c4)n3n2)c1` [Example 209], the “EC20 (concentration necessary for suppressing 20% of the expression level of MHC class I molecules)” value is 40 nM. Take `COc1ccc(-c2ccnc3nc(NC(=O)NCC(=O)Nc4ccccc4)nn23)cc1` [Example 144]: the “EC20 (concentration necessary for suppressing 20% of the expression level of MHC class I molecules)” value was 460 nM. Take `CC(C)CCC[C@H](C)NC(=O)Nc1nc2nccc(-c3cccc(OCc4ccccc4)c3)n2n1` [Example 256]: the “EC20 (concentration necessary for suppressing 20% of the expression level of MHC class I molecules)” value is 550 nM. In the case of `COc1ccc(-c2ccnc3nc(NC(=O)N[C@H](C(=O)NCc4cccnc4)C(C)C)nn23)cc1` [Example 078], the “EC20 (concentration necessary for suppressing 20% of the expression level of MHC class I molecules)” value stood at 670 nM.

Take `CC(CCCC(C)(C)O)NC(=O)Nc1nc2nccc(-c3cccc(OCc4cccnc4)c3)n2n1` (stereo not drawn) [Example 313, 1-(5-hydroxy-1,5-dimethylhexyl)-3-{7-[3-(pyridin-3-ylmethoxy)phenyl]-[1,2,4]triazolo[1,5-a]pyrimidin-2-yl}urea]: the “EC20 (concentration necessary for suppressing 20% of the expression level of MHC class I molecules)” value was determined as 290 nM. For the compound `CC(C)NC(=O)Nc1nc2nccc(-c3ccc4c(c3)CCO4)n2n1` [Example 046], the “EC20 (concentration necessary for suppressing 20% of the expression level of MHC class I molecules)” value came to 340 nM. As for `COc1ccc(-c2ccnc3nc(NC(=O)N[C@H](C(=O)NC4CCCCC4)C(C)C)nn23)cc1` [Example 094], the “EC20 (concentration necessary for suppressing 20% of the expression level of MHC class I molecules)” value stood at 200 nM. Regarding `COc1ccc(-c2ccnc3nc(NC(=O)N[C@H](C(=O)NCc4ccccc4)C(C)C)nn23)cc1` [Example 089], the “EC20 (concentration necessary for suppressing 20% of the expression level of MHC class I molecules)” value is 210 nM. For the compound `COCCOCCOCCOc1ccc(-c2ccnc3nc(NC(=O)N[C@@H](C)CCCC(C)C)nn23)cc1` [Example 263], the “EC20 (concentration necessary for suppressing 20% of the expression level of MHC class I molecules)” value was found to be 7.9 nM. With `COc1cccc([C@H](C)NC(=O)Nc2nc3nccc(-c4ccc(N(C)C)cc4)n3n2)c1` [Example 232], the “EC20 (concentration necessary for suppressing 20% of the expression level of MHC class I molecules)” value was 40 nM. Take `COc1ccc(-c2ccnc3nc(NC(=O)NCC4CCCCC4)nn23)cc1` [Example 099]: the “EC20 (concentration necessary for suppressing 20% of the expression level of MHC class I molecules)” value was determined as 440 nM. For the compound `COc1cccc([C@H](C)NC(=O)Nc2nc3nccc(-c4ccc(OCCC5OCCCO5)cc4)n3n2)c1` [Example 225], the “EC20 (concentration necessary for suppressing 20% of the expression level of MHC class I molecules)” value amounted to 50 nM. Turning to `COc1ccc([C@H](C)NC(=O)Nc2nc3nccc(-c4cccc(OC)c4)n3n2)cc1` [Example 186], the “EC20 (concentration necessary for suppressing 20% of the expression level of MHC class I molecules)” value amounted to 440 nM. The figure for `COCCOc1ccc(-c2ccnc3nc(NC(=O)N[C@@H](C)c4cccc(OC)c4)nn23)cc1OCCOC` [Example 251] is 60 nM; for `COCC[C@H](C)NC(=O)Nc1nc2nccc(-c3cccs3)n2n1` [Example 332] it is 760 nM; for `COc1cccc([C@H](C)NC(=O)Nc2nc3nccc(-c4cccc(OCCCc5cccnc5)c4)n3n2)c1` [Example 210] it is 130 nM.

On to `COc1ccc(-c2ccnc3nc(NC(=O)N[C@H](C(=O)NCCN4CCOCC4)C(C)C)nn23)cc1` [Example 079], for which the “EC20 (concentration necessary for suppressing 20% of the expression level of MHC class I molecules)” value was 970 nM. For the compound `O=C(Nc1nc2nccc(-c3cccc(OCc4ccncc4)c3)n2n1)NC1CCCCC1` [Example 171], the “EC20 (concentration necessary for suppressing 20% of the expression level of MHC class I molecules)” value came to 290 nM.
